Results as given in US10919941B2, “Functional lipid constructs” (KODE BIOTECH LIMITED, priority 2007, dated 2021).
No end group written: not given here.

How the values were obtained:
[1] = tested on: Miltenberger Antibody Positive Panel; assay: Reactivity of modified RBCs against the Miltenberger Antibody Positive Panel; format: cell-based, human; set-up: key to score vs panel 15 TAP2 / score vs panel 4 T7202 / score vs panel 8 T5896 / score vs panel 2 T217 / score vs panel 3 T165 / score vs panel 14 TAP1 / score vs panel 10 Mia / score vs panel 11 Mur / score vs panel 12 Gam / score vs panel 6 T6025 / score vs panel 7 T8445 / score vs panel 9 MIII / score vs panel 13 BoxH / reactivity with Panel Serum #7 (T8445) / agglutination score, Panel Serum #7 (T8445): 0 or ‘−’ no agglutination; 0 or ‘−’ no agglutination; 1+ or 3=very weak agglutination; 1+ or 3=very weak agglutination; 2+ or 5=weak agglutination; 2+ or 5=weak agglutination; 3+ or 8=moderate strong agglutination; 3+ or 8=moderate strong agglutination; 4+ or 10/12=strong agglutination; 4+ or 10/12=strong agglutination; 4+ or 10/12=strong agglutination
[2] = tested on: natural Mi III antibody reactive human serums; assay: Positive serum reactivity of modified RBCs in the field; format: cell-based; set-up: key: 0 or ‘−’ no agglutination; 0 or ‘−’ no agglutination; 1+ or 3=very weak agglutination; 1+ or 3=very weak agglutination; 2+ or 5=weak agglutination; 2+ or 5=weak agglutination; 3+ or 8=moderate strong agglutination; 3+ or 8=moderate strong agglutination; 4+ or 10/12=strong agglutination; 4+ or 10/12=strong agglutination; 4+ or 10/12=strong agglutination; details: 22 at 50, 17 and 24 at 200 μg/ml; 3 h RT then 18 h 4° C.
Description: (§1) The suspensions are either: • 1. incubated for 2 hours at 37° C. before being washed and suspended in a cell medium for serological analysis at a concentration of 0.8 to 3% (Method 1); or • 2. incubated for 3 to 4 hours at room temperature (circa 25° C.) followed by 18 hours at 4° C. before being washed and suspended in a cell medium for serological analysis at a concentration of 0.8 to 3% (Method 2).
(§2) Serological reactions are graded or scored by either of two established systems (0 or ‘−’ no agglutination, 1+ or 3=very weak agglutination, 2+ or 5=weak agglutination, 3+ or 8=moderate strong agglutination, 4+ or 10/12=strong agglutination)

[3] = tested on: TAP1 serum (Taiwan Miltenberger antibody positive sample); assay: Anti-MUT serum (TAP1) reactivity of modified RBCs (saline and AHG); format: cell-based, human; set-up: key: 0 or ‘−’ no agglutination; 0 or ‘−’ no agglutination; 1+ or 3=very weak agglutination; 1+ or 3=very weak agglutination; 2+ or 5=weak agglutination; 2+ or 5=weak agglutination; 3+ or 8=moderate strong agglutination; 3+ or 8=moderate strong agglutination; 4+ or 10/12=strong agglutination; 4+ or 10/12=strong agglutination; 4+ or 10/12=strong agglutination; details: for Reactivity with anti-MUT serum TAP1: construct 50 μg/ml (2 hours, 37° C.)
Description: as §1, §2

antibody negative serums = assay: False positive reactions of modified RBCs with antibody negative serums/plasma; format: cell-based, human; set-up: key to Reaction score BioVue AHG, PAC samples 1-46, 49, 50, 52, 53 / Reaction score BioVue AHG, PAC sample 47 / Reaction score BioVue AHG, PAC sample 48 / Reaction score BioVue AHG, PAC sample 51 / agglutination score, T series serum 2 / agglutination score, T series serum 42 / agglutination score, T series serum 63 / agglutination score, T series serum 62 / agglutination score, T series serum 7 / agglutination score, T series serum 20 / agglutination score, T series serum 48 / agglutination score, T series serum 22 / agglutination score, T series serum 39 / agglutination score, T series serum 23 / agglutination score, T series serum 30 / agglutination score, T series serum 4 / agglutination score, T series serum 31 / agglutination score, T series serum 44 / agglutination score, T series serum 61 / agglutination score, T series serum 18 / agglutination score, T series serum 21 / agglutination score, T series serum 28 / agglutination score, T series serum 55 / agglutination score, false positive serum T18 / agglutination score, false positive serum T21 / agglutination score, false positive serum T28 / agglutination score, false positive serum T55 / agglutination score, false positive serum T78 / agglutination score, false positive serum T92: 0 or ‘−’ no agglutination; 0 or ‘−’ no agglutination; 1+ or 3=very weak agglutination; 1+ or 3=very weak agglutination; 2+ or 5=weak agglutination; 2+ or 5=weak agglutination; 3+ or 8=moderate strong agglutination; 3+ or 8=moderate strong agglutination; 4+ or 10/12=strong agglutination; 4+ or 10/12=strong agglutination; 4+ or 10/12=strong agglutination
[4] = tested on: Miltenberger antibody positive sera; assay: BioVue AHG card column agglutination serology of modified red blood cells; format: cell-based, human; set-up: key: 0 or ‘−’ no agglutination; 0 or ‘−’ no agglutination; 1+ or 3=very weak agglutination; 1+ or 3=very weak agglutination; 2+ or 5=weak agglutination; 2+ or 5=weak agglutination; 3+ or 8=moderate strong agglutination; 3+ or 8=moderate strong agglutination; 4+ or 10/12=strong agglutination; 4+ or 10/12=strong agglutination; 4+ or 10/12=strong agglutination; details: construct 50 μg/ml
Description: Red blood cells are modified by mixing 1 part by volume of washed packed red blood cells with 1 part by volume of peptide-lipid construct dispersed at a concentration of 10 to 1000 pg/ml in cell media (Celpresol™).
as §1, §2
Serological platforms used are Tube (addition of reagents and reactants into plastic or glass serology tubes and after appropriate incubations, washing and centrifugation observing reactions macroscopically by eye and a 10× magnification eyepiece and scoring) and BioVue™ (addition of reactants into cassettes containing beads (including some reactants) and after appropriate incubations and centrifugation observing the reaction patterns trapped within the Gel matrix). BioVue is the serological column agglutination platform of Ortho-Clinical Diagnostics. Diamed is the serological column agglutination platform of Diamed AG.

[5] = cells modified at 50 μg/ml, 2 hour 37° C., BioVue AHG cards
[6] = larger series = 102, cells modified at 50 μg/ml, 2 hour 37° C., BioVue AHG cards
[7] = blood donor plasma, construct 50 μg/ml (2 hours, 37° C.)

## M17: DOPE peptide-lipid construct: Mur peptide TYPAHTANEV, leader c, spacer CMG(2) (TYPAHTANEVC; also: DOPE peptide-lipid construct via leader Cys, spacer CMG(2))
[1]; Table 9, construct 100 μg/ml
  score vs panel 2 T217: 0
  score vs panel 3 T165: 10
  score vs panel 4 T7202: 8
  score vs panel 6 T6025: 10
  score vs panel 7 T8445: 10
  score vs panel 8 T5896: 0
  score vs panel 9 MIII: 0
  score vs panel 10 Mia: 0
  score vs panel 11 Mur: 0
  score vs panel 12 Gam: 0
  score vs panel 15 TAP2: 0
[1]; [5]
  agglutination score, Panel Serum #7 (T8445): 10
[1]; construct 50 μg/ml (2 hours, 37° C.)
  reactivity with Panel Serum #7 (T8445): 10
[2]
  score vs Mi III reactive serum 912485657-9: 3
  score vs Mi III reactive serum 914146821-8: 10
  score vs Mi III reactive serum 922390844-5: 12
  score vs Mi III reactive serum 926190919-0: 3
  score vs Mi III reactive serum 926555294-1: 0
  score vs Mi III reactive serum 927175131-4: 0
  score vs Mi III reactive serum 927299700-1: 0
  score vs Mi III reactive serum 927516053-2: 0
  score vs Mi III reactive serum 927619701-8: 3
  score vs Mi III reactive serum 932360876-4: 0
  score vs Mi III reactive serum 932467774-5: 0
  score vs Mi III reactive serum 932809044-1: 8
  score vs Mi III reactive serum 942223755-1: 5
  score vs Mi III reactive serum 942404708-4 (row interpreted Mur): 5
  score vs Mi III reactive serum 942404708-4 (row interpreted other): 0
  score vs Mi III reactive serum 942421413-0: 5
  score vs Mi III reactive serum 942423002-4: 0
  score vs Mi III reactive serum 942433813-3: 8
  score vs Mi III reactive serum 942433855-3: 8
  score vs Mi III reactive serum 942442720-2: 5
  score vs Mi III reactive serum 942448627-8: 0
  score vs Mi III reactive serum 942753165-4: 8
  score vs Mi III reactive serum 942762589-1: 0
  score vs Mi III reactive serum 9322338631: 10
  score vs Mi III reactive serum 9325490091: 5
  score vs Mi III reactive serum 9327986660: 3
  score vs Mi III reactive serum 9328118428: 10
  score vs Mi III reactive serum 9328154853: 10
  score vs Mi III reactive serum 9328791834: 3
  score vs Mi III reactive serum 9424248012: 0
  score vs Mi III reactive serum 9424292604: 8
  score vs Mi III reactive serum 9424396133: 0
  score vs Mi III reactive serum 9425256505: 8
  score vs Mi III reactive serum 9427455417: 5
  score vs Mi III reactive serum 9427613497: 0
  score vs Mi III reactive serum 9427615156: 0
  score vs Mi III reactive serum S-3: 3
[3]; construct 50 μg/ml
  TAP 1 Serum, AHG score: 0
  TAP 1 Serum, Saline score: 0
Antibody negative serums; T series reactives (n = 58), BioVue AHG cards
  % positive: 33%
Antibody negative serums; [5]
  agglutination score, T series serum 2: 10
  agglutination score, T series serum 4: 8
  agglutination score, T series serum 7: 8
  agglutination score, T series serum 18: 12
  agglutination score, T series serum 20: 8
  agglutination score, T series serum 21: 12
  agglutination score, T series serum 22: 8
  agglutination score, T series serum 23: 3
  agglutination score, T series serum 28: 12
  agglutination score, T series serum 30: 3
  agglutination score, T series serum 31: 8
  agglutination score, T series serum 39: 5
  agglutination score, T series serum 42: 10
  agglutination score, T series serum 44: 10
  agglutination score, T series serum 48: 8
  agglutination score, T series serum 55: 12
  agglutination score, T series serum 61: 10
  agglutination score, T series serum 62: 8
  agglutination score, T series serum 63: 10
Antibody negative serums; [6]
  agglutination score, false positive serum T18: 12
  agglutination score, false positive serum T21: 12
  agglutination score, false positive serum T28: 12
  agglutination score, false positive serum T55: 12
  agglutination score, false positive serum T78: 12
  agglutination score, false positive serum T92: 12
Antibody negative serums; n = 102 negative serum samples
  number of negative serums with score 0: 65
  number of negative serums with score 3: 3
  number of negative serums with score 8-5: 18
  number of negative serums with score 12-10: 17
  share of negative serums with score 0: 64%
  share of negative serums with score 3: 3%
  share of negative serums with score 8-5: 18%
  share of negative serums with score 12-10: 17%

## M33: DOPE peptide-lipid construct: MUTK peptide QTNDKHKRDTY, leader c, spacer CMG(2) (QTNDKHKRDTYC; also: DOPE peptide-lipid construct via leader Cys, spacer CMG(2))
[4]
  BioVue score vs TAP1: 3
  BioVue score vs positive sample 2 T217 (T): 0
  BioVue score vs positive sample 3 T165 (Mur): 0
  BioVue score vs positive sample 4 T7202 (M): 0
  BioVue score vs positive sample 8 T5896 (M + K + Mur): 0
[1]; Table 8, construct 50 μg/ml
  score vs panel 2 T217: 0
  score vs panel 3 T165: 0
  score vs panel 4 T7202: 0
  score vs panel 8 T5896: 0
  score vs panel 14 TAP1: 8
  score vs panel 15 TAP2: 0
[3]
  Reactivity with anti-MUT serum TAP1: 3

## M34: DOPE peptide-lipid construct: MUTK peptide SSQTNDKHKR, leader c, spacer CMG(2) (SSQTNDKHKRC; also: DOPE peptide-lipid construct via leader Cys, spacer CMG(2))
[4]
  BioVue score vs TAP1: 5
  BioVue score vs positive sample 2 T217 (T): 0
  BioVue score vs positive sample 3 T165 (Mur): 0
  BioVue score vs positive sample 4 T7202 (M): 0
  BioVue score vs positive sample 8 T5896 (M + K + Mur): 0
[1]; Table 8, construct 50 μg/ml
  score vs panel 2 T217: 0
  score vs panel 3 T165: 0
  score vs panel 4 T7202: 0
  score vs panel 8 T5896: 0
  score vs panel 14 TAP1: 3
  score vs panel 15 TAP2: 0
[3]
  Reactivity with anti-MUT serum TAP1: 5
Antibody negative serums; [7]
  Reaction score BioVue AHG, PAC sample 47: 0
  Reaction score BioVue AHG, PAC sample 48: 3
  Reaction score BioVue AHG, PAC sample 51: 5
  Reaction score BioVue AHG, PAC samples 1-46, 49, 50, 52, 53: 0
Antibody negative serums; panel of blood donor plasma samples (PAC), BioVue AHG, construct 50 μg/ml
  % False Positives: 3.8%

## M35: DOPE peptide-lipid construct: MUTK peptide QTNDKHKRDT, leader c, spacer CMG(2) (QTNDKHKRDTC; also: DOPE peptide-lipid construct via leader Cys, spacer CMG(2))
[4]
  BioVue score vs TAP1: 5
  BioVue score vs positive sample 2 T217 (T): 0
  BioVue score vs positive sample 3 T165 (Mur): 0
  BioVue score vs positive sample 4 T7202 (M): 0
  BioVue score vs positive sample 8 T5896 (M + K + Mur): 0
[1]; Table 8, construct 50 μg/ml
  score vs panel 2 T217: 0
  score vs panel 3 T165: 0
  score vs panel 4 T7202: 0
  score vs panel 8 T5896: 0
  score vs panel 14 TAP1: 5
  score vs panel 15 TAP2: 0
[3]
  Reactivity with anti-MUT serum TAP1: 5
